Reference: US9688637B2, “3-amidobenzamides and uses thereof for increasing cellular levels of A3G and other A3 family members” (Northwestern University, priority 2014, dated 2017)

Assays:
HIV NL4-3 = experiment: Infectivity of virions from 293T co-transfected with NL4-3 and A3F, TZM-bl cells; type: cell-based, HIV-1; settings: co-transfection of 293T with HIV NL4-3 and A3F (FIG. 8)
Procedure: FIG. 8. 293T cells were co-transfected with […] of NL4.3 plasmid DNA and 400 ng of either control or A3F/G DNAs, with or without NU52. Infectivity of equal amounts of resulting viruses (normalized by HIV-1 p24 antigen) were measured using TZM-bl cells. NU-52 treatment of producer cell reduced infectivity of virus produced from those cells.

293T cells = experiment: Cellular cytotoxicity by counting cells after 48 hrs with compound vs DMSO; type: cell-based; settings: concentration at which cell death was seen; 48 hrs
Procedure: To screen compounds that can boost A3G levels, 293T cells (25,000 cells per well in 96-well plate) stably expressing A3G-Luc protein or A3G-Luc/Vif proteins were plated. After 24 hrs post plating culture medium was replaced with 100 μl of new medium containing either DMSO as a control or various compounds (10 μM concentration). After 48 hrs of incubation with compounds culture medium was removed from each well and replaced with 100 μl of Britelite Plus luciferase assay substrate (PerkinElmer). Following 5 min. of incubation at room temperature, 75 μl of each cell lysate was transferred to a 96-well OptiPlate 96 (PerkinElmer) and luminescence was measured in a VICTOR X2 Multilabel Reader (PerkinElmer). Relative activity of compounds for their boosting capability A3G-Luc activity was calculated by plotting DMSO-treated A3G-Luc or A3G-Luc/Vif cells as 100%. Cellular cytotoxicity was measured by counting number of cells after 48 hrs of incubation with compounds compared to DMSO treated cells.

For COc1ccc(C(=O)Nc2ccc(Cl)c(Cl)c2)cc1NC(=O)C(C)C [NU-52], the infectivity of virions (HIV NL4-3) was “decreased infectivity” and the “Cytotoxicity: Cell Death at” value (293T cells) was “Cell Death at 30 μM”.
